The record followed here is patent publication US9796733B2, “Imidazo-pyrazine derivatives useful as soluble guanylate cyclase activators” (Merck Sharp & Dohme Corp., priority 2014, dated 2017).

Assay [1] has as its system Spontaneously hypertensive rats (SHR). In words: Acute efficacy in spontaneously hypertensive rats (SHR): telemetry blood pressure lowering after a single oral dose. Format: in vivo, rat. An outline of the steps:
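Male SHR carrying aortic telemetry implants (14-day recovery) received a single oral gavage of compound or vehicle (10% transcutol/20% Cremophor/70% water). Conscious blood pressure was sampled 30 s every 10 min and averaged hourly; change was taken against the prior-day vehicle baseline, reported as maximum peak SBP decrease at a given PO dose (mpk).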

The target of another assay is T1, sGC α1/β1 heterodimer (Homo sapiens, UniProt Q02108+Q02153).
T1 construct: expressed in transfected cells; host or cells: CHO-K1 (clone #7, CHO-K1/sGC)
T1 sequence (Q02108 1-690): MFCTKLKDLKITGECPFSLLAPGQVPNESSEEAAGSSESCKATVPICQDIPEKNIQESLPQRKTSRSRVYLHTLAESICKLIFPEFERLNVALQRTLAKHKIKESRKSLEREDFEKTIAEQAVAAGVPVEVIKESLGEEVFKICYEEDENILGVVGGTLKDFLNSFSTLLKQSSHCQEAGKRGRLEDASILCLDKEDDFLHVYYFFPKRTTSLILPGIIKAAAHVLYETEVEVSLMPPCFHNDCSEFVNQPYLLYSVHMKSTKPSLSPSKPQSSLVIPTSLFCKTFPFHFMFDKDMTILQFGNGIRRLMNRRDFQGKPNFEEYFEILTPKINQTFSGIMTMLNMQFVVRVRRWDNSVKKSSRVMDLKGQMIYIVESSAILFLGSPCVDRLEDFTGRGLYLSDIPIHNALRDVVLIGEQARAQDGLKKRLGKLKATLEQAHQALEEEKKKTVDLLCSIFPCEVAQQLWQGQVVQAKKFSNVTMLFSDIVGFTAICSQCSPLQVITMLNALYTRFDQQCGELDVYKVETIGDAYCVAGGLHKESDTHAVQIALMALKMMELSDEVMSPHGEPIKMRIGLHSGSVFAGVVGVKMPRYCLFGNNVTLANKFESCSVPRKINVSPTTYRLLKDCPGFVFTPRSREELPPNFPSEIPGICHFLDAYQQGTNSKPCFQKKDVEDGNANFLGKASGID
T1 sequence (Q02153 1-619): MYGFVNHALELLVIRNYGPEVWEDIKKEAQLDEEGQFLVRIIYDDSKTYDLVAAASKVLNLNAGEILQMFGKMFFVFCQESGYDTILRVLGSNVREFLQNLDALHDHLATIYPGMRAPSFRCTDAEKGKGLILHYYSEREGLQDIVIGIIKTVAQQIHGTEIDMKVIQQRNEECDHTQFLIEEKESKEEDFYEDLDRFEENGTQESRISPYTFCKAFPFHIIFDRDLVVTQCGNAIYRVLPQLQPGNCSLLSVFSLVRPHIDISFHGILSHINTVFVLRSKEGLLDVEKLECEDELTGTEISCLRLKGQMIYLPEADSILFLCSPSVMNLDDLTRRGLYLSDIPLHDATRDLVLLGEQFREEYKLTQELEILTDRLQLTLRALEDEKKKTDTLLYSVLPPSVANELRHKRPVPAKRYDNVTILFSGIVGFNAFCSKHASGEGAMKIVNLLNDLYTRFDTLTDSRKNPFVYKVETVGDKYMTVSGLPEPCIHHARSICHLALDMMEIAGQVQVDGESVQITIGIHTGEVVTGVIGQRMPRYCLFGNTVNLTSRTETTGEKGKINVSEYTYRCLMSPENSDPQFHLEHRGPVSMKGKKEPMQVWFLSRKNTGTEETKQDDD
Put plainly: Cell-based sGC functional assay (CASA assay): cGMP generation in CHO-K1/sGC cells, HTRF detection. The note with it: for Emax: CHO-K1, percent activation relative to standard Compound A in CHO-K1/sGC cells, read-out: % Act.; for EC50: inflection point (IP) of cGMP generation in CHO-K1/sGC cells, 4P fit, activity expressed as percentage of Compound A. The essentials:
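Stable CHO-K1/sGC cells in EBSS buffer with 5 mM MgCl2, 0.05% BSA and 0.5 mM IBMX were incubated with compound (2.5% DMSO final) ±1 μM DETA-NO for 1 hr at 37° C. cGMP was measured by HTRF. Activation is expressed as % of reference HDA Compound A maximum, with IP and max fold induction from a 4P fit.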

In the case of `Nc1nc(-c2cn3ccnc3c(CCCC(F)(F)F)n2)nc2c1C(c1ccc(F)cn1)(C1CC1)C(=O)N2` (stereo not drawn) [Example 217A, 4-amino-5-cyclopropyl-5-(5-fluoropyridin-2-yl)-2-(8-(4,4,4-trifluorobutyl)imidazo[1,2-a]pyrazin-6-yl)-5H-pyrrolo[2,3-d]pyrimidin-6(7H)-one], in assay [1] (P.O. 1.0 mpk), the “Maximum peak decrease of systolic blood pressure (SBP) in SHR, Cat.” value (“Maximum peak decrease” below) is “C (Category C=SBP in SHRs>40 mmHg)”. Besides, on sGC α1/β1 heterodimer, the Emax was determined as 82% and a half-maximal effect (EC50) was put at 288 nM.
As to `CCC1(c2ccc(Cl)cc2)C(=O)Nc2nc(-c3cn4ccnc4c(CCCC(F)(F)F)n3)nc(N)c21` (stereo not drawn) [Example 209B, 4-amino-5-(4-chlorophenyl)-5-ethyl-2-(8-(4,4,4-trifluorobutyl)imidazo[1,2-a]pyrazin-6-yl)-5H-pyrrolo[2,3-d]pyrimidin-6(7H)-one], the “Maximum peak decrease” value in assay [1] (P.O. 0.3 mpk) is on record as “B (Category B=SBP in SHRs 20-40 mmHg)”. In addition, on sGC α1/β1 heterodimer, the Emax is 111% and a half-maximal response (EC50) required 49 nM.
As for `CC1(C(=O)NC2CC2)C(=O)Nc2nc(-c3cn4ccnc4c(CCC(F)(F)C(F)(F)F)n3)nc(N)c21` (stereo not drawn) [Example 60A, 4-amino-N-cyclopropyl-5-methyl-6-oxo-2-(8-(3,3,4,4,4-pentafluorobutyl)imidazo[1,2-a]pyrazin-6-yl)-6,7-dihydro-5H-pyrrolo[2,3-d]pyrimidine-5-carboxamide], the “Maximum peak decrease” value in assay [1] (P.O. 1.0 mpk) was “A (Category A=SBP in SHRs<20 mmHg)”. On sGC α1/β1 heterodimer, the Emax came out at 41% and a half-maximal response (EC50) required 88 nM.
As to `CCCCc1nc(-c2nc(N)c3c(n2)NC(=O)C3(c2ccc(OC(F)(F)F)cc2)C2CC2)cn2ccnc12` (stereo not drawn) [Example 346A], the “Maximum peak decrease” value in assay [1] (P.O. 1.0 mpk) was “B (Category B=SBP in SHRs 20-40 mmHg)”. On sGC α1/β1 heterodimer, the Emax stood at 132% and the EC50 was determined as 65 nM.
The corresponding values for `CC1(c2ccc(OC(F)F)cn2)C(=O)Nc2nc(-c3cn4ccnc4c(CCCC(F)(F)F)n3)nc(N)c21` (stereo not drawn) [Example 214A, 4-amino-5-(5-(difluoromethoxy)pyridin-2-yl)-5-methyl-2-(8-(4,4,4-trifluorobutyl)imidazo[1,2-a]pyrazin-6-yl)-5H-pyrrolo[2,3-d]pyrimidin-6(7H)-one] are “B (Category B=SBP in SHRs 20-40 mmHg)”, 92% and 247 nM.
For `Nc1nc(-c2cn3ccnc3c(CCCC(F)(F)F)n2)nc2c1C(c1ccc(F)c(F)c1)(C1CC1)C(=O)N2` (stereo not drawn) [Example 317A, 4-amino-5-cyclopropyl-5-(3,4-difluorophenyl)-2-(8-(4,4,4-trifluorobutyl)imidazo[1,2-a]pyrazin-6-yl)-5H-pyrrolo[2,3-d]pyrimidin-6(7H)-one], in assay [1] (P.O. 0.1 mpk), the “Maximum peak decrease” value is listed as “B (Category B=SBP in SHRs 20-40 mmHg)”. At sGC α1/β1 heterodimer, the Emax was determined as 156% and the response was half-maximal at 75 nM (EC50).
Consider `CCCc1nc(-c2nc(N)c3c(n2)NC(=O)C3(c2ccc(F)c(F)c2)C2CC2)cn2ccnc12` (stereo not drawn) [Example 334A, 4-amino-5-cyclopropyl-5-(3,4-difluorophenyl)-2-(8-propylimidazo[1,2-a]pyrazin-6-yl)-5H-pyrrolo[2,3-d]pyrimidin-6(7H)-one], for which, in assay [1] (P.O. 3.0 mpk), the “Maximum peak decrease” value is “A (Category A=SBP in SHRs<20 mmHg)”. At sGC α1/β1 heterodimer, the Emax stood at 111% and the EC50 was 278 nM.
In the case of `CC1(c2ccc(F)cn2)C(=O)Nc2nc(-c3cn4ccnc4c(Cc4ccc(F)cc4)n3)nc(N)c21` (stereo not drawn) [Example 69B, 4-Amino-2-(8-(4-fluorobenzyl)imidazo[1,2-a]pyrazin-6-yl)-5-(5-fluoropyridin-2-yl)-5-methyl-5H-pyrrolo[2,3-d]pyrimidin-6(7H)-one], the “Maximum peak decrease” value in assay [1] (P.O. 0.3 mpk) is reported as “C (Category C=SBP in SHRs>40 mmHg)”. Besides, on sGC α1/β1 heterodimer, the Emax is 116% and it took 9 nM to reach a half-maximal effect (EC50).
The corresponding values for `CCCCc1nc(-c2nc(N)c3c(n2)NC(=O)C3(c2ccc(Cl)cn2)C2CC2)cn2ccnc12` (stereo not drawn) [Example 336B, 4-amino-2-(8-butylimidazo[1,2-a]pyrazin-6-yl)-5-(5-chloropyridin-2-yl)-5-cyclopropyl-5H-pyrrolo[2,3-d]pyrimidin-6(7H)-one] are “B (Category B=SBP in SHRs 20-40 mmHg)”, 131% and 22 nM.
For the molecule `CC1(c2ccc(Cl)c(Cl)c2)C(=O)Nc2nc(-c3cn4ccnc4c(CCC(F)(F)F)n3)nc(N)c21` (stereo not drawn) [Example 186A, 4-amino-5-(3,4-dichlorophenyl)-5-methyl-2-(8-(3,3,3-trifluoropropyl)imidazo[1,2-a]pyrazin-6-yl)-5H-pyrrolo[2,3-d]pyrimidin-6(7H)-one], in assay [1] (P.O. 1.0 mpk), the “Maximum peak decrease” value is recorded as “B (Category B=SBP in SHRs 20-40 mmHg)”. Moreover, at sGC α1/β1 heterodimer, the Emax is 129% and the midpoint of the response, the EC50, lay at 207 nM.
Regarding `CCCCc1nc(-c2nc(N)c3c(n2)NC(=O)C3(c2ccc(F)c(F)c2)C2CC2)cn2ccnc12` (stereo not drawn) [Example 330A, 4-amino-2-(8-butylimidazo[1,2-a]pyrazin-6-yl)-5-cyclopropyl-5-(3,4-difluorophenyl)-5H-pyrrolo[2,3-d]pyrimidin-6(7H)-one], the “Maximum peak decrease” value in assay [1] (P.O. 0.3 mpk) is “B (Category B=SBP in SHRs 20-40 mmHg)”. On sGC α1/β1 heterodimer, the Emax stood at 142% and the EC50 was found to be 22 nM.
For `CCCCc1nc(-c2nc(N)c3c(n2)NC(=O)C3(c2ccc(Cl)cc2F)C2CC2)cn2ccnc12` (stereo not drawn) [Example 369A, 4-amino-2-(8-butylimidazo[1,2-a]pyrazin-6-yl)-5-(4-chloro-2-fluorophenyl)-5-cyclopropyl-5H-pyrrolo[2,3-d]pyrimidin-6(7H)-one], in that order: “B (Category B=SBP in SHRs 20-40 mmHg)”, 109% and 13 nM.
As for `Cc1ccc(C2(C)C(=O)Nc3nc(-c4cn5ccnc5c(CCC(F)(F)F)n4)nc(N)c32)cc1` (stereo not drawn) [Example 185A, 4-amino-5-methyl-5-(p-tolyl)-2-(8-(3,3,3-trifluoropropyl)imidazo[1,2-a]pyrazin-6-yl)-5H-pyrrolo[2,3-d]pyrimidin-6(7H)-one], in assay [1] (P.O. 3.0 mpk), the “Maximum peak decrease” value is on record as “C (Category C=SBP in SHRs>40 mmHg)”. At sGC α1/β1 heterodimer, the Emax amounted to 132% and the EC50 stood at 235 nM.
For `CC(C)Cc1nc(-c2nc(N)c3c(n2)NC(=O)C3(c2ccc(F)c(F)c2)C2CC2)cn2ccnc12` (stereo not drawn) [Example 335A, 4-amino-5-cyclopropyl-5-(3,4-difluorophenyl)-2-(8-isobutylimidazo[1,2-a]pyrazin-6-yl)-5H-pyrrolo[2,3-d]pyrimidin-6(7H)-one], in that order: “B (Category B=SBP in SHRs 20-40 mmHg)”, 140% and 303 nM.
The corresponding values for `CCCc1nc(-c2nc(N)c3c(n2)NC(=O)C3(c2ccc(Cl)cc2F)C2CC2)cn2ccnc12` (stereo not drawn) [Example 360A, 4-amino-5-(4-chloro-2-fluorophenyl)-5-cyclopropyl-2-(8-propylimidazo[1,2-a]pyrazin-6-yl)-5H-pyrrolo[2,3-d]pyrimidin-6(7H)-one] are “B (Category B=SBP in SHRs 20-40 mmHg)”, 129% and 43 nM.

Usually EC50 stands for the concentration needed to bring the measured effect to its halfway point. Lower therefore signals an effect from little substance.
